Active and inactive are the calls of the source.
Tests used:
[1] = biological target: Glutathione-S-transferase (Schistosoma japonicum, UniProt Q26513); assay: GST-antibody interaction or FRET quenching – biochemical, TR-FRET, artefact control for Vif-APOBEC3G degradation inhibitor project, dose response (AID 1117362); format: functional
[2] = biological target: T1, Heat shock 70 kDa protein 1A (Homo sapiens, UniProt P0DMV8); assay: small molecules displacing fluorescent ligand from Hsp70 – biochemical, fluorescence polarization, primary screen (AID 583)
[3] = biological target: T1, Heat shock 70 kDa protein 1A; assay: small-molecule inhibition of Hsp70 – biochemical, TR-FRET (AID 786)
[4] = biological target: Troponin, cardiac muscle (Homo sapiens, UniProt P19429+P45379+P63316); assay: compounds desensitizing RTF to calcium – biochemical, fluorescence, cardiac regulated thin filaments, triplicate IC50, dose response (AID 504742); format: protein-complex assay
[5] = Luminescence Cell-Based Dose Response HTS to Identify Activators of Luciferase Translation or Activity in H4 […] Cells. [Related pubchem assays: 1829 (Project Summary), 1814 (Primary HTS)]; format: functional
[6] = Luminescence Cell-Based Dose Confirmation HTS to Identify Activators of 5'UTR Stem-Loop Driven Alpha-Synuclein mRNA Translation in H4 Neuroglioblastoma Cells. [Related pubchem assays: 1829 (Project Summary), 1814 (Primary HTS)]; format: functional
[7] = biological target: Large T antigen (Simian virus 40, UniProt P03070); format: functional, Betapolyomavirus macacae;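 also: Confirmatory-stage PubChem screen for compounds that inhibit SV40 T antigen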
[8] = biological target: Eukaryotic translation initiation factor 4E (Mus musculus, UniProt P63073); assay: blockers of eIF4G binding by eIF4E – biochemical, TR-FRET, dose response (AID 855); format: functional;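 also: potency for disrupting eIF4E binding to eIF4GI seen as loss of FRET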
[9] = tested on: H4; assay: Luminescence Cell-Based Dose Response HTS to Identify Activators of 5'UTR Stem-Loop Driven Prion Protein mRNA Translation in H4 Neuroglioblastoma Cells. [Related pubchem assays: 1829 (Project Summary), 1814 (Primary HTS)]; format: functional; settings: Homo sapiens
[10] = biological target: T2, Tyrosine-protein phosphatase non-receptor type 7 (Homo sapiens, UniProt P35236); assay: redox-active compounds inhibiting HePTP phosphatase – biochemical, fluorescence, mechanism study (AID 2068); format: functional
T2 sequence (P35236 whole entry): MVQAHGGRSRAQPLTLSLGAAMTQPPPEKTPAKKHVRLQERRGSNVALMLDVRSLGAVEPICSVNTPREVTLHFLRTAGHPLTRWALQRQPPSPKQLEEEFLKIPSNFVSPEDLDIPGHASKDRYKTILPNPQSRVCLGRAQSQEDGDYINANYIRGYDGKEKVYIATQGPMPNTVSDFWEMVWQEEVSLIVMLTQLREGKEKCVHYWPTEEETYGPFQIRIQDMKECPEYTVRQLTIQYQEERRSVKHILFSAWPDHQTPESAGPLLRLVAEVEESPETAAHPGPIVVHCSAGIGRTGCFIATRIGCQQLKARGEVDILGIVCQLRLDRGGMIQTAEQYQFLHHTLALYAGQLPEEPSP

[11] = biological target: Induced myeloid leukemia cell differentiation protein Mcl-1 (Homo sapiens, UniProt Q07820); format: functional
[12] = Luminescence Cell-Based Dose Retest to Confirm Inhibitors of Cancer Stem Cells. [Related pubchem assays (depositor defined):AID2717, AID2721]; format: functional; settings: Homo sapiens
[13] = microbe, parasite or virus in culture; format: functional; settings: Mycobacterium tuberculosis
[14] = biological target: Beta-galactosidase (Escherichia coli, UniProt Q8VNN2); assay: detection-enzyme interference by beta-gal modulators – biochemical, E. coli enzyme, set 3, artefact control for CCR6 antagonist project, dose response (AID 504712); format: functional
[15] = biological target: T2, Tyrosine-protein phosphatase non-receptor type 7; assay: SAR analysis of chemical inhibitors of HePTP using a Fluorescent assay - Set 2. [Related pubchem assays (depositor defined):AID1059, AID1077, AID1661, AID2085, AID521]; format: functional
[16] = biological target: T3, Coagulation factor XII (Homo sapiens, UniProt P00748); format: functional;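 also: activated factor XIIa alpha cleaving a fluorogenic AMC peptide substrate; inhibitor potency from loss of enzyme activity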
T3 sequence (P00748 whole entry): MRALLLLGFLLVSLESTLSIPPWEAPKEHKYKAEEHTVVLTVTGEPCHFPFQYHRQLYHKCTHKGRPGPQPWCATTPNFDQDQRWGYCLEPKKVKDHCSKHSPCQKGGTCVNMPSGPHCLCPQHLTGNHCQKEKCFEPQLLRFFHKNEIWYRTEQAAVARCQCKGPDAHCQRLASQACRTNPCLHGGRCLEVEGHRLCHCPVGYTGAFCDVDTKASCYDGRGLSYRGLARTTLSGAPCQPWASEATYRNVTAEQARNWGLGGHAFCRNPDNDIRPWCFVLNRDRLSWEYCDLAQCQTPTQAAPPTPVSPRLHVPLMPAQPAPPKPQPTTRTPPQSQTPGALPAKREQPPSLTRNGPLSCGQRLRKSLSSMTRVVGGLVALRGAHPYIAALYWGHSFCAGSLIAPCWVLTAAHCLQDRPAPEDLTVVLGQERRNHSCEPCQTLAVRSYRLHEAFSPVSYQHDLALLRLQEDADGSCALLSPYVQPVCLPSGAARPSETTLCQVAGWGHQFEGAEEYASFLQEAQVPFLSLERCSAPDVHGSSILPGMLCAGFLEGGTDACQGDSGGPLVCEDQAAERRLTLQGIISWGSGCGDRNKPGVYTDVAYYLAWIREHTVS

[17] = biological target: Dual specificity protein phosphatase 3 (Homo sapiens, UniProt P51452); assay: SAR VHR1 Fluorescent Assay for In Vitro dose response studies Set 2. [Related pubchem assays (depositor defined):AID1654, AID1661, AID1878]; format: functional
[18] = biological target: Keap1/Nrf2 (Homo sapiens, UniProt Q14145); assay: disruptors of Keap1 binding to Nrf2 peptide – biochemical, fluorescence polarization, cherry-picked samples, dose response (AID 588683)
[19] = bead-based luminescence quenchers, dual-tagged ARNT – biochemical, AlphaScreen, cherry-pick, artefact control for ARNT-TACC3 interaction inhibitor project, dose response (AID 651705); format: functional;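 also: AlphaScreen bead proximity signal that flags compounds interfering with the detection technology; potency reflects signal decrease which marks the compound as an assay artifact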
[20] = biological target: ORF 73 (Human herpesvirus 8, UniProt O40947); assay: KSHV LANA DNA-binding disruption – biochemical, fluorescence polarization, cherry-picked samples, dose response (AID 504725); design: species or system Human gammaherpesvirus 8;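 also: fluorescence polarization of a labeled DNA duplex reporting LANA DNA binding; potency is for inhibitors that block LANA binding to the DNA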
[21] = tested on: HeLa; assay: viability loss in HeLa cells – cell-based, 24 h, cherry-picked samples, cytotoxicity control, dose response (AID 504726); format: functional; settings: Homo sapiens;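 also: potency for cytotoxicity as loss of luminescence signal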
[22] = biological target: T4, RNA-binding protein pos-1 (Caenorhabditis elegans, UniProt G5EF15); assay: disruptors of C. elegans POS-1 RNA interaction – biochemical, fluorescence polarization, dose response (AID 1964);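 also: purified POS-1 fused to maltose binding protein made in E. coli; potency of compounds blocking POS-1 binding to fluorescent RNA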
T4 sequence (G5EF15 whole entry): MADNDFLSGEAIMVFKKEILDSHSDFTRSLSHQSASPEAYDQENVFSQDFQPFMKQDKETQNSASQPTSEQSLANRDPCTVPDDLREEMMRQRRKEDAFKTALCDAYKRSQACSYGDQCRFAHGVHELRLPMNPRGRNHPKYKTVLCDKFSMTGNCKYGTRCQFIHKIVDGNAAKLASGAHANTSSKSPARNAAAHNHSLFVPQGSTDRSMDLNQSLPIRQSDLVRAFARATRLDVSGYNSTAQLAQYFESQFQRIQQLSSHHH

[23] = biological target: T5, Caspase-6 (Homo sapiens, UniProt P55212); assay: inhibition of CASP6 peptide cleavage – biochemical, VEID-R110 fluorescence, cherry-pick, dose response (AID 720632)
T5 sequence (P55212 whole entry): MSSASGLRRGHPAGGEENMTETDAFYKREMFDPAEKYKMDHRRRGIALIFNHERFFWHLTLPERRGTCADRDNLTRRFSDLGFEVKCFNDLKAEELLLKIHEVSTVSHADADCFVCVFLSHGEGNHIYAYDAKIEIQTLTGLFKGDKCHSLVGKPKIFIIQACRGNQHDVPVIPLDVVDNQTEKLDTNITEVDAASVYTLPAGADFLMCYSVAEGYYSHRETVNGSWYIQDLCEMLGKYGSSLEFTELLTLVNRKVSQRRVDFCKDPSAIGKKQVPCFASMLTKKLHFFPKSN

[24] = biological target: T6, Long-chain-fatty-acid--AMP ligase FadD28 (Mycobacterium tuberculosis, UniProt P9WQ59); assay: Fluorescence polarization aasay to screen for inhibitors that compete for the binding of FadD28 to a bisubstrate Measured in Biochemical System Using Plate Reader - 2147-01_Inhibitor_Dose_CherryPick_Activity.; format: functional, Mycobacterium tuberculosis H37Rv
T6 sequence (P9WQ59 whole entry): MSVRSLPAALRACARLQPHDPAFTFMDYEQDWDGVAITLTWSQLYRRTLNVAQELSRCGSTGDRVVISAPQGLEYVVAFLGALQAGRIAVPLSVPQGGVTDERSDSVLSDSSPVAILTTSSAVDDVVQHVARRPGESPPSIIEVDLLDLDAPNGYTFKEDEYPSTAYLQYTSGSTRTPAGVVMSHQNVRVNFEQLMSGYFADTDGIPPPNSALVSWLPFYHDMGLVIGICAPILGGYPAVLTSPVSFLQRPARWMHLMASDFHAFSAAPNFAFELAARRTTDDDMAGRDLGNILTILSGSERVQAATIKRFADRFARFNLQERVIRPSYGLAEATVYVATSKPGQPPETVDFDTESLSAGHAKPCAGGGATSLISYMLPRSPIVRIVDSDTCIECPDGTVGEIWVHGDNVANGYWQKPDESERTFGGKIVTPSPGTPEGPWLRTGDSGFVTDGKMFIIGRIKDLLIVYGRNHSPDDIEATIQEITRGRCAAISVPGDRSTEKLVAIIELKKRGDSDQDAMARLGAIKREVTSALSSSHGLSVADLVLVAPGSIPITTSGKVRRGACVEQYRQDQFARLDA

[25] = biological target: T7, Zinc finger protein mex-5 (Caenorhabditis elegans, UniProt Q9XUB2); assay: potency of MEX-5 RNA-binding blockers – biochemical, C. elegans, fluorescence polarization, dose response (AID 1960)
T7 sequence (Q9XUB2 whole entry): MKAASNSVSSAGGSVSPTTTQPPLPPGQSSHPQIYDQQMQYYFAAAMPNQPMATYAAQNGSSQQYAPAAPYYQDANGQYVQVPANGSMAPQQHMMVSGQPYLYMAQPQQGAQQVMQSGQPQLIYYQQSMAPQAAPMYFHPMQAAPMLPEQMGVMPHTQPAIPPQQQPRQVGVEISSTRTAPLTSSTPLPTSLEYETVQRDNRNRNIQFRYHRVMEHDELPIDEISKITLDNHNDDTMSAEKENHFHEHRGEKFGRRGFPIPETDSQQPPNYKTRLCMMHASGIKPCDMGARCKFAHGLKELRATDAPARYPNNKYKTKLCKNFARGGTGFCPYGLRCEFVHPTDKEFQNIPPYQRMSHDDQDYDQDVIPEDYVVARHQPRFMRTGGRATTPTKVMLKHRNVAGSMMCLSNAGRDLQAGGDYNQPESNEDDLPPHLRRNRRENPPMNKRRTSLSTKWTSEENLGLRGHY

[26] = biological target: Eukaryotic translation initiation factor 4H (Homo sapiens, UniProt Q15056); assay: inhibitors of translation initiation factor eIF4H – SAR follow-up (AID 435011); format: functional
[27] = biological target: Polyadenylate-binding protein 1 (Homo sapiens, UniProt P11940); assay: PABP inhibition in translation initiation, SAR follow-up (AID 435018); format: functional
[28] = tested on: Trypanosoma cruzi; assay: anti-trypanosomal activity in host cells – cell-based, plate reader, dry powder, set 3, dose response (AID 493197); format: functional
[29] = NIH/3T3 cell viability loss – mouse embryonic fibroblasts, dry powder, set 2, cytotoxicity control, dose response (AID 493247); format: functional, cell-based; settings: Fibroblast
[30] = biological target: Potassium voltage-gated channel subfamily KQT member 2 (Rattus norvegicus, UniProt O88943); assay: potentiation of rat KCNQ2 current – cell-based, retigabine-insensitive compounds, dose response (AID 2654); format: functional
Sequence of Potassium voltage-gated channel subfamily KQT member 2 (O88943 whole entry): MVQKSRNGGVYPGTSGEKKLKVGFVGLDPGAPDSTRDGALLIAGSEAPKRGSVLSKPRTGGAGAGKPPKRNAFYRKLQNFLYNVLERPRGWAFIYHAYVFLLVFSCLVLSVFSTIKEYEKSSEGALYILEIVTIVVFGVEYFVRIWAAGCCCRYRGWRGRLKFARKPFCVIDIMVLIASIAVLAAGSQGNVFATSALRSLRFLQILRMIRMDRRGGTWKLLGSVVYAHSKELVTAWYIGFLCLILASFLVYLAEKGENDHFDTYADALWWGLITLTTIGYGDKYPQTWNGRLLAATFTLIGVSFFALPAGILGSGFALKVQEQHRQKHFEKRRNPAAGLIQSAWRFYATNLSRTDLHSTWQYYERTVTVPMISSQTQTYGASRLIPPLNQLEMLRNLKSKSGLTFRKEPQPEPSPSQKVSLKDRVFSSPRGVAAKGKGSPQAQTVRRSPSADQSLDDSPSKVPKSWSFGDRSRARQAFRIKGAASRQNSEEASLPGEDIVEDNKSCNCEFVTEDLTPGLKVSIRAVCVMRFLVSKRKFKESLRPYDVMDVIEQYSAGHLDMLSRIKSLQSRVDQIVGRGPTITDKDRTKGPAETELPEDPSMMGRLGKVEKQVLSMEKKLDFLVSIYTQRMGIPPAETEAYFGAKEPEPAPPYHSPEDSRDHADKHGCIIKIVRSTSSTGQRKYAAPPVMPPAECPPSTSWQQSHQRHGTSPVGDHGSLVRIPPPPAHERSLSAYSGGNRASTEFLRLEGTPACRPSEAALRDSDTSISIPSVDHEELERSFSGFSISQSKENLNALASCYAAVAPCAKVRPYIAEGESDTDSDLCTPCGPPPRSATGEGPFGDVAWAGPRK

Sequence of Eukaryotic translation initiation factor 4E (P63073 whole entry): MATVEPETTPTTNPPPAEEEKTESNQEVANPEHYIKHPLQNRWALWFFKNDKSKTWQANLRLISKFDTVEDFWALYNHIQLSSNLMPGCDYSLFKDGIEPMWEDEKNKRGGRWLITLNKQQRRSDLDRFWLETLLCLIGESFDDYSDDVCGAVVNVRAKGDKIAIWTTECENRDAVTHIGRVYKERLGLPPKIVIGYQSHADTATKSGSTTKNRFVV
T1 sequence (P0DMV8 whole entry): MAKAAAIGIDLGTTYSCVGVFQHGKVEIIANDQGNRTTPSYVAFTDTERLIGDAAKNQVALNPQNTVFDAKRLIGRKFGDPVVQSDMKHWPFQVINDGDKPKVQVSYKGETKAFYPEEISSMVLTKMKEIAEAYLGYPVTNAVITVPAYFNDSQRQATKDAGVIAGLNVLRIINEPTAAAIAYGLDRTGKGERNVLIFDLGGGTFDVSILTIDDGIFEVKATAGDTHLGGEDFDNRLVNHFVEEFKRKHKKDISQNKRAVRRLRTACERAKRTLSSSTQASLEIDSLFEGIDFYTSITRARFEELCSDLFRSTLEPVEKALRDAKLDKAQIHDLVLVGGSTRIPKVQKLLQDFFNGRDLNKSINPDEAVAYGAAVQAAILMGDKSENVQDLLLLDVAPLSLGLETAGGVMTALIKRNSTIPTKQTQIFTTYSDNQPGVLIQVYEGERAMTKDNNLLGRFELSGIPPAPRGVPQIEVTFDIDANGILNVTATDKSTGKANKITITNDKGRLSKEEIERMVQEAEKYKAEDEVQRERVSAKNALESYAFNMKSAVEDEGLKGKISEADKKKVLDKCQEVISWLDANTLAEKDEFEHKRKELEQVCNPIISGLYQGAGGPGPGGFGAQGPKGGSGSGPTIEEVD
Sequence of Large T antigen (P03070 whole entry): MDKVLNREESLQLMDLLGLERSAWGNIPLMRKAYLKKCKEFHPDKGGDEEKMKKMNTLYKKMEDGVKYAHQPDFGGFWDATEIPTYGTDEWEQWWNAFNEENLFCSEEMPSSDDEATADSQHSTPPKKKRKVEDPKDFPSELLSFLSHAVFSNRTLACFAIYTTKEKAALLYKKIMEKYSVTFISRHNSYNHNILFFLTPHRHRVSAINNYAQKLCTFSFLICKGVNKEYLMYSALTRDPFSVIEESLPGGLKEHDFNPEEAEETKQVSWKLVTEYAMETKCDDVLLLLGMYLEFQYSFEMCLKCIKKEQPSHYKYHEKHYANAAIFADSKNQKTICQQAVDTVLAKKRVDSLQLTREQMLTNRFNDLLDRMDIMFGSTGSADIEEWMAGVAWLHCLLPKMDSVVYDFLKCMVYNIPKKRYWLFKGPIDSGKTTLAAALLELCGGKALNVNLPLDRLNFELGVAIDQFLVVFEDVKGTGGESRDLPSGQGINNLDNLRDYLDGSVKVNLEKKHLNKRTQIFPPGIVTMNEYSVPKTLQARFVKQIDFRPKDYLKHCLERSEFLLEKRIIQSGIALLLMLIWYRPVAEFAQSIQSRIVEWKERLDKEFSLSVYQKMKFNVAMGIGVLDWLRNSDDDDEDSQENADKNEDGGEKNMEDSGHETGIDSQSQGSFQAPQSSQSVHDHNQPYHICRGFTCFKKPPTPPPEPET
Sequence of Beta-galactosidase (Q8VNN2 whole entry): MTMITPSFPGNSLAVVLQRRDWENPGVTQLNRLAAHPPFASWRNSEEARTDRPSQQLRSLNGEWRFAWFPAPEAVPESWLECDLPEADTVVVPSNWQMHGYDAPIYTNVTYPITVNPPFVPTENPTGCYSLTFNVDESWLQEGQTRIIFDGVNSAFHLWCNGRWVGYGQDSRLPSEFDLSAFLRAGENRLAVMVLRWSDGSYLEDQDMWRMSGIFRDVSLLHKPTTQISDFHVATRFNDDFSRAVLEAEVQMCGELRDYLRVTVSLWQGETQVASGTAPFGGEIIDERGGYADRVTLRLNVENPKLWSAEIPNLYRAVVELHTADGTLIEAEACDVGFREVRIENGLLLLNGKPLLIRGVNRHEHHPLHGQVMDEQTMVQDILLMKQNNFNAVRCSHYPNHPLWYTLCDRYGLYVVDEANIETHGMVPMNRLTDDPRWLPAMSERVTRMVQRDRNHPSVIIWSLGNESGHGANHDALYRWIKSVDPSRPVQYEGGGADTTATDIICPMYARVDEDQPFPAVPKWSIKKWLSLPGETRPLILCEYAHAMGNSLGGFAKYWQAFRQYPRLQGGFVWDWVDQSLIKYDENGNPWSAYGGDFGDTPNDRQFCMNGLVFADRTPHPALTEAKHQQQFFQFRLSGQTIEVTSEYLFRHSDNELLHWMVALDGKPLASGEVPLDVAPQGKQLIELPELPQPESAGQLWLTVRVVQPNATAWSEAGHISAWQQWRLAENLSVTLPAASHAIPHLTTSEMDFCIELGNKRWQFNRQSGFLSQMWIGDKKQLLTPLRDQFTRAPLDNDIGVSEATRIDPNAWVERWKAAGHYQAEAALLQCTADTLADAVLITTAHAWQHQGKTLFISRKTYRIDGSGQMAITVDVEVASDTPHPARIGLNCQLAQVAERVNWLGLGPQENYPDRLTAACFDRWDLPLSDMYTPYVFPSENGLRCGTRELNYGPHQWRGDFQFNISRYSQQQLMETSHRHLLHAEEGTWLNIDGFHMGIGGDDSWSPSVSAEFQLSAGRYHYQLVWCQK
Sequence of Glutathione-S-transferase (Q26513 whole entry): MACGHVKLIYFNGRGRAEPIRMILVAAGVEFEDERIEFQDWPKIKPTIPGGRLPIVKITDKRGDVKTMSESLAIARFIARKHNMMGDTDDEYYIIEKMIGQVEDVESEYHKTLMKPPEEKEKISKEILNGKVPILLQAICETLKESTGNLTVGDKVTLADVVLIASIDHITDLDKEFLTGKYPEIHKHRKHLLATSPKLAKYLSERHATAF
Sequence of ORF 73 (O40947 whole entry): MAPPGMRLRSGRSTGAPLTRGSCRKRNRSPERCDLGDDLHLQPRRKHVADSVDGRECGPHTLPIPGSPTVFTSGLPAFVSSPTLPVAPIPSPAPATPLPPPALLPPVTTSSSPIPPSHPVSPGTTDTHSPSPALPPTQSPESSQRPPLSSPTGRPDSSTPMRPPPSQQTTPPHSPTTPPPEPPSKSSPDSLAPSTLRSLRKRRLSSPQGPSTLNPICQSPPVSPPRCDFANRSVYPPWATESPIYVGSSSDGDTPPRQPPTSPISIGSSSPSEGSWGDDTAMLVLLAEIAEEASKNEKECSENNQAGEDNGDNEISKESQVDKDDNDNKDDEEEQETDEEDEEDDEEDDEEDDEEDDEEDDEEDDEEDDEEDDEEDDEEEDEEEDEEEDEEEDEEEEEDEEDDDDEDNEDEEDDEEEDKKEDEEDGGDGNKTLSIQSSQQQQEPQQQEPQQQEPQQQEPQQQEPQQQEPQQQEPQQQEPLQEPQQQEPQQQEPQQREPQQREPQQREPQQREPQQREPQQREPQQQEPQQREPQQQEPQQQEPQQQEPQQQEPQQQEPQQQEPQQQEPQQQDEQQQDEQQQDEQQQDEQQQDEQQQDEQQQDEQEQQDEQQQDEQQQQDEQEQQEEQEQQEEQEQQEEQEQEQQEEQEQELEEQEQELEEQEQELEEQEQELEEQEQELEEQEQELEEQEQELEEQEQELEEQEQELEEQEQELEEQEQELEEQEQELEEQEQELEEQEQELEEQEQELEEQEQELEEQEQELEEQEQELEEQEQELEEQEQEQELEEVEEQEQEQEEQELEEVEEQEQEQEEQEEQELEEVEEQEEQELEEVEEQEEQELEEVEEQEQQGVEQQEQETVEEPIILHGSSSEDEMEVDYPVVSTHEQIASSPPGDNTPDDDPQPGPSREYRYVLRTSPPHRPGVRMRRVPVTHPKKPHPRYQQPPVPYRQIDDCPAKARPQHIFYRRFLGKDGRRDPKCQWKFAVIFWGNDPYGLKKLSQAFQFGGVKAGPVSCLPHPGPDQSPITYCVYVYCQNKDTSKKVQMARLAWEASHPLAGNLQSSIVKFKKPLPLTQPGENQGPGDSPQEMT

SMILES: O=C(Nc1ccc2nc(-c3ccco3)c(-c3ccco3)nc2c1)NC1CC1
- IC50 [1]: 75.5 µM (active)
- IC50 [2]: 73.3 µM (active)
- IC50 [3]: > 100 µM (not active)
- IC50 [4]: 47.5 µM (inactive)
- EC50 [5]: 13.2 µM (active)
- EC50 [6]: > 120 µM (not active)
- IC50 [7]: 39.6 µM (active)
- IC50 [8]: 33.1 µM (inactive)
- EC50 [9]: > 120 µM (not active)
- IC50 [10]: 1.34 µM (active)
- IC50 [11]: 2.92 µM (active)

SMILES: CNC(CC(=O)c1ccc([N+](=O)[O-])cc1)C(Cl)(Cl)Cl (configuration not stated)
- AC50 [12]: 2.3 µM (active)
- CC50 [13]: > 40 µM (active)
- IC50 [14]: > 66.6 µM (inactive)

SMILES: Nc1c(C(=O)NCc2cccnc2)sc(=S)n1-c1ccccc1
- IC50 [15]: > 100 µM (inactive)
- IC50 [16]: > 50 µM (inactive)
- IC50 [17]: 78 µM (active)
- IC50 [8]: > 64 µM (inactive)

SMILES: NS(=O)(=O)c1ccc(N=Nc2cnc(O)c(O)c2)cc1
- AC50 [18]: 17.1 µM (active)
- AC50 [19]: 135 µM (active)
- AC50 [20]: 19.5 µM (active)
- AC50 [21]: 43.8 µM (active)
- EC50 [22]: 5.41 µM (active)
- AC50 [23]: 3.44 µM (active)
- IC50 [7]: 27.5 µM (active)
- AC50 [24]: 22.8 µM (active)
- EC50 [25]: 0.421 µM (active)

SMILES: COc1ccc(C(=O)N/N=C\c2ccc(OCC(=O)Nc3ccc(C)c(C)c3)c(OC)c2)cc1
- IC50 [26]: > 100 µM (inactive)
- IC50 [27]: > 100 µM (inactive)

SMILES: COc1ccc(CCN(C)C(=O)C2CCCN(Cc3ccccc3Cl)C2)cc1OC (configuration not stated)
- AC50 [28]: 13.7 µM (active)
- AC50 [29]: 46.8 µM (active)

SMILES: O=C(NCc1ccc(Cl)cc1Cl)Nc1ccc(F)nc1
- EC50 [30]: 6.31 µM (active)
